Laboratory results as given in patent US20070270392A1, “Use of a Cyclopentenone Prostaglandin for Delaying the Onset and/or Preventing the Continuation of Labour” (Imperial College Innovations Limited, priority 2003, published 2007).

Assays:
NF-κB [1] = assay: EMSA of NF-κB DNA binding in nuclear extracts of treated amnion cells; format: cell-based, human; conditions: L− and L+ amnion cells, treated 2 h, IL-1β stimulation 15 min
Procedure: (§1) Electro-mobility shift assay (EMSA) analysis of NF-κB DNA binding in nuclear protein extracts from (A) myometrial cells, (B) L+amnion cells, and (C) L− amnion cells treated with 15dPGJ2 or vehicle for 2 h+/−IL-1b stimulation (15 min). Consensus kB probe used to assess NF-κB DNA binding, and consensus Oct-1 probe used as control.
EMSA analysis of nuclear protein extracts from amnion cells treated with 15dPGJ2+/−GW9662 or vehicle for 2 h followed by IL-1β stimulation (15 min). Consensus kB probe used to assess NFκB DNA binding, consensus Oct-1 probe used as control.
(§2) EMSA analysis of nuclear protein extracts from (A) myometrial cells, and (B) amnion cells treated with PGA1 or vehicle for 2 h followed by IL-1b stimulation (15 min). Consensus κB probe used to assess NFκB DNA binding, consensus Oct-1 probe used as control. For supershift analysis, extracts were preincubated with antibodies against p50 or p65.
(§3) EMSA analysis of nuclear protein extracts from (A) L− amnion cells and (B) myometrial cells treated with vehicle, PGE2 or IL-1β. Consensus κB probe used.
Placentae were obtained from patients at term either at elective Caesarean section prior to labour (L−) or following spontaneous labour onset and vaginal delivery (L+). Amnion cells were prepared as described in Bennett et al., (1989). Briefly, the amnion was separated from the placenta, washed 3× in PBS, cut into strips, and incubated in 0.51 mM EDTA in PBS for 15 min. The strips were washed in PBS 2× and digested with 2.5 mg/ml dispase in serum-free DMEM for 35 min at 37° C. The amnion was then shaken vigorously in DMEM, 10% FCS to dissociate the cells, the remaining strips discarded, and the cell suspension pelleted at 175 g for 10 min and cultured in DMEM, 10% FCS (Sigma), 1% L-glutamine, 1% penicillin-streptomycin.
(§4) Nuclear and cytosolic protein extracts were obtained from cultured amnion cells as described by Schreiber et al (1989). For nuclear/cytosolic fractionation, confluent cell monolayers were scraped and lysed using a buffer containing 10 mM HEPES, 10 mM KCl, 0.1 mM EDTA, 0.1 mM EGTA, 2 mM DTT, 1% (v/v) NP-40 and complete protease inhibitor tablets (CPIs, Roche), diluted to manufacturer's instructions. Cell lysates were incubated on ice for 10 min and NP-40 added to a final concentration of 1% (v/v). Lysates were vortexed for 10 secs and centrifuged for 30 secs at 4° C., 12000 g. The supernatants were retained as the cytosolic protein extracts. The pellets were resuspended in buffer containing 10 mM HEPES, 10 mM KCl, 0.1 mM EDTA, 0.1 mM EGTA, 2 mM DTT, 400 mM NaCl, 1% NP-40 (v/v) and CPIs. Samples were shaken vigorously for 15 min in an ice bath. The nuclear protein extracts were obtained in the supernatant following a 5 min centrifugation at 4° C., 12000 g.
(§5) Sense and antisense strands (175 nmole/ml each) were incubated in annealing buffer (10 mM Tris-HCl pH7.5, 100 mM NaCl, 1 mM EDTA) for 10 min at 65° C., and allowed to cool at room temperature for 2 h. 3.5 pmole double-stranded oligonucleotides were end-labelled with 0.37 MBq ^32P(γATP) by incubating for 30 min at 37° C. with T4 polynucleotide kinase. Labelled oligonucleotides were recovered by centrifugation at […] for 2 min through MicroSpin G-25 or G-50 sephadex columns (Amersham Biosciences). […]

NF-κB [2] = assay: EMSA of NF-κB DNA binding in nuclear extracts of treated myometrial cells; format: cell-based, human; conditions: for IL-1β-induced NF-κB DNA binding: myometrial cells, treated 2 h, IL-1β stimulation 15 min
Procedure: as §1
Consensus κB probe used to assess NF-κB DNA binding, consensus Oct-1 probe used as control. For supershift analysis, extracts were preincubated with antibodies against p50 or p65.
EMSA analysis of nuclear protein extracts from myometrial cells treated with (A) WY-14643 or vehicle, and (B) high doses of troglitazone, WY-14643 or vehicle for 2 h followed by IL-1b stimulation (15 min). Consensus κB probe used to assess NFκB DNA binding, consensus Oct-1 and Sp-1 probes used as controls.
as §2
Analysis of nuclear protein extracts from myometrial cells treated with PGE2 or vehicle for 2 h+/−TNFα or IL-1b stimulation (15 min). (A) EMSA using consensus κB probe. (B) Western immunoblot probing for nuclear p65.
as §3
Myometrial tissue was collected at term from the upper margin of uterine incision at the time of lower segment caesarean section either prior to the onset of labour (L−) or […] (L+). L+ samples were collected by Dr Mark Johnson and Dr S Soorrana at Chelsea & Westminster Hospital. Myometrial tissue was dissected, rinsed in PBS, and digested in serum-free DMEM containing 15 mg/ml collagenase 1A (Sigma), 15 mg/ml collagenase X, and 50 mg/ml bovine serum albumin for 45 min at 37° C. The cell suspension was filtered through a cell strainer, centrifuged at 400 g for 5 min, and the pellet re-suspended and plated out in DMEM, 10% FCS (Helena BioScience), 1% L-glutamine, 1% penicillin-streptomycin. Cells were used between passage numbers 1-4.
as §4, §5

Row | SMILES | IL-1β-induced NF-κB DNA binding (NF-κB [1]) | IL-1β-induced NF-κB DNA binding (NF-κB [2]) | Protein binding to a consensus Oct-1 or Sp-1 probe (control) (NF-κB [2]; control for NF-κB-specific effect)
1 | CCCCC[C@H](O)/C=C/[C@H]1C=CC(=O)[C@@H]1CCCCCCC(=O)O [PGA1, prostaglandin A1] | able to inhibit | able to inhibit | –
2 | CCCCCC=CC=C1C(=O)C=C[C@@H]1CC=CCCCC(=O)O [15d-PGJ2, 15-deoxy-Δ^12,14prostaglandin J2] | inhibited | inhibited | unaffected
